IC50 and Km data for four compounds are collected here from PMC4348537, “Discovery of Novel New Delhi Metallo-β-Lactamases-1 Inhibitors by Multistep Virtual Screening” (PLoS ONE, 2015).

Assay [1] deals with T1, NDM-1 (New Delhi metallo-β-lactamase-1) (Klebsiella pneumoniae, UniProt C7C422).
T1 construct: gene blaNDM-1
Kind of assay: nitrocefin hydrolysis assay with purified enzyme, dose-response; similar with […] Triton X-100. It counts as biochemical.

Assay [2] deals with T1, NDM-1 (New Delhi metallo-β-lactamase-1). As to the kind of experiment: steady-state hydrolysis kinetics at […] nm, Km by Lineweaver-Burk plot. The class given is biochemical.

T1 sequence (C7C422 29-270 limits assumed): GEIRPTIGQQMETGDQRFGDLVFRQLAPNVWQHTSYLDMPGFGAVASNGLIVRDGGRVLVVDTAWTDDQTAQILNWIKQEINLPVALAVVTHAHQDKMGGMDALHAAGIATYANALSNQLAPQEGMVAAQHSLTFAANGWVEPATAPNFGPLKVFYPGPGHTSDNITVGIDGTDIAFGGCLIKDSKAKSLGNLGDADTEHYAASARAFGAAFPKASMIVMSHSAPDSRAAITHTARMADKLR

In general, IC50 refers to the concentration needed to halve the response being measured. Low values mean greater potency, high ones weaker potency. As for `Cc1cc(C)c(NC(=O)CSc2ncc3c(n2)-c2ccc(Cl)cc2N(C)S3(=O)=O)c(C)c1` [VNI-24], half-maximal inhibition in assay [1] (IC50) was put at 37.6 ± 0.9 µM.
The same measure, in the same setting: to `CCOc1ccc(S(=O)(=O)N2CCN(c3cc(Nc4ccc(C)cc4)nc(C)n3)CC2)cc1` [VNI-34] belongs 31.4 ± 1.2 µM; to `O=C(Nc1cccc2ccccc12)C1CCN(S(=O)(=O)c2cccc3nonc23)CC1` [VNI-41], 29.6 ± 1.3 µM.
The term Km denotes the substrate concentration at which the rate is half of its maximum. For `O=C(Cc1cccs1)N[C@@H]1C(=O)N2C(C(=O)O)=C(/C=C/c3ccc([N+](=O)[O-])cc3[N+](=O)[O-])CS[C@H]12` [nitrocefin], the Michaelis constant (Km) in assay [2] amounted to 9.54 ± 0.43 µM.
